One data set concerns the target T1, CCRF-CEM DHFR (Homo sapiens, UniProt P00374).
T1 construct: DHFR isolated from human CCRF-CEM leukemic cells; endogenous in cells; host or cells: CCRF-CEM human leukemic cells
Put plainly: Inhibition of DHFR isolated from human CCRF-CEM leukemic cells. The class given is biochemical. To be noted: Table 17.

The subject of another data set is CCRF-CEM cells. Put plainly: Growth inhibition of CCRF-CEM human leukemia cells, continuous exposure. The class given is cell-based.
The target in data set [1] is T2, CCRF-CEM human leukemia cell folylpolyglutamate synthetase (Homo sapiens, UniProt Q05932).
T2 construct: substrates for human leukemia cell CCRF-CEM folylpolyglutamate synthetase; endogenous in cells; host or cells: CCRF-CEM human leukemia cells
T2 sequence (Q05932 43-587): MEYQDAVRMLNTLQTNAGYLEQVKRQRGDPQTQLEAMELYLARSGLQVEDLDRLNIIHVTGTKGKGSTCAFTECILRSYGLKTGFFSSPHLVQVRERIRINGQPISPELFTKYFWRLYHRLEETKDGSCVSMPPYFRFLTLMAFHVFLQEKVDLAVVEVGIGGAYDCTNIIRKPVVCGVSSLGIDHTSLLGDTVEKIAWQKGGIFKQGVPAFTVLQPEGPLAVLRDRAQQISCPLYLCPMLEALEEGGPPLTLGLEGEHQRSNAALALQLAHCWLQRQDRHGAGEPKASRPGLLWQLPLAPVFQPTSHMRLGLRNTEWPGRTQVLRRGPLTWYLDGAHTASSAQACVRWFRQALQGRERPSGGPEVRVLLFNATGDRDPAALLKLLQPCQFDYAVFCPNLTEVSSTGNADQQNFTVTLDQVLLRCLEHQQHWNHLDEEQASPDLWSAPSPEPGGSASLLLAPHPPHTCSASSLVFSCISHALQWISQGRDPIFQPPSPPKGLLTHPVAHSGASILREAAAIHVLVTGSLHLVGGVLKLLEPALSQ
Put plainly: Substrate activity for CCRF-CEM folylpolyglutamate synthetase. The format is biochemical. To be noted: Table 18. How it is done:
(§1) Aminopterin is a classical 2,4-diamino antifolate substrate.
(§2) Compounds 33 and 34 were also evaluated for their substrate activity in CCRF-CEM human leukemia folylpolyglutamate synthetase; the compounds were compared against aminopterin.

The target of the next data set is human recombinant TS (Homo sapiens, UniProt P04818). Put plainly: Inhibition of human recombinant TS. The format is biochemical. The note with it: Table 17; read-out: Human REC TS IC50.
Chain of human recombinant TS (P04818 whole entry): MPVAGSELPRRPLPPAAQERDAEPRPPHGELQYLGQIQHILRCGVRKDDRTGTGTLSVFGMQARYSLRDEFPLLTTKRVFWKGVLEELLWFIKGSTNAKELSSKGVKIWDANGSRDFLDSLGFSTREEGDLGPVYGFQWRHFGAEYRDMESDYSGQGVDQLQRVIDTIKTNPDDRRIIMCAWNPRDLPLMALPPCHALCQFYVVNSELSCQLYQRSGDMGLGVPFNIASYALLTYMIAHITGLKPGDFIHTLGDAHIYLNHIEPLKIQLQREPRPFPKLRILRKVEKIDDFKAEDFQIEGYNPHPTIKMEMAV
The test system of a further data set is R2 cells. Put plainly: Growth inhibition of R2 subline (MTX-transport deficient). The format is cell-based. The note with it: Homo sapiens; Table 23; continuous exposure; read-out: Growth inhibition EC50, R2 (↓ transport).
In a further data set the target is TS from P. carinii (Pneumocystis carinii, UniProt P13100). Put plainly: Inhibition of P. carinii TS. The class given is biochemical. The note with it: b353.
Chain of TS from P. carinii (P13100 whole entry): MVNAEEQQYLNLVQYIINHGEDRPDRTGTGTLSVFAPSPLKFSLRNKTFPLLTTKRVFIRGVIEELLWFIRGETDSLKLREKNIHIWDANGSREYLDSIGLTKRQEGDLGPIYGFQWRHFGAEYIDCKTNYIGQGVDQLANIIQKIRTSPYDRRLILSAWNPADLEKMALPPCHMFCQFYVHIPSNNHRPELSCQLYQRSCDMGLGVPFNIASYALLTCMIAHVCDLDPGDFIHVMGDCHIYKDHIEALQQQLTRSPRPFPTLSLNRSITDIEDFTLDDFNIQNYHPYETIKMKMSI
The subject of the next data set is R1 cells. Put plainly: Growth inhibition of R1 subline (increased DHFR). To be noted: Homo sapiens; Table 23; continuous exposure; read-out: Growth inhibition EC50, R1 (↑ DHFR). The format is cell-based.
The next data set concerns the target L. casei DHFR (Lacticaseibacillus casei, UniProt P00381). Put plainly: Inhibition of Lactobacillus casei DHFR. The class given is biochemical.
For data set [2], the target named is E-coli thymidylate synthase (ecTS) (Escherichia coli, UniProt P0A884). Put plainly: Inhibition of E. coli thymidylate synthase. The format is biochemical. The note with it: b353; read-out: inhibition of TS from E. coli. How it is done: All of the compounds were tested against human cells, L. casei, E. coli, and S. faecium.
Chain of E-coli thymidylate synthase (ecTS) (P0A884 whole entry): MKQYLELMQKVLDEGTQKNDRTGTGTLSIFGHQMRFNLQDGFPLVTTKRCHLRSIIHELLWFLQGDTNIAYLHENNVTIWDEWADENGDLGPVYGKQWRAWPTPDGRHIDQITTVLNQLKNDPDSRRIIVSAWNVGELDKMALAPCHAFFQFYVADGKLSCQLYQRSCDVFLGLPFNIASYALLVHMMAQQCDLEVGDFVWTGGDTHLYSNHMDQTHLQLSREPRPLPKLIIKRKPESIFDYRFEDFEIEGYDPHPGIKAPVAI
The test system of another data set is R30dm cells. Put plainly: Growth inhibition of R30dm subline (decreased polyglutamate synthase). To be noted: Homo sapiens. The class given is cell-based.
The target in a further data set is L. casei TS (Lacticaseibacillus casei, UniProt P00469). Put plainly: Inhibition of thymidylate synthase (TS), L. casei. The class given is biochemical, Lactobacillus casei.
Chain of L. casei TS (P00469 whole entry): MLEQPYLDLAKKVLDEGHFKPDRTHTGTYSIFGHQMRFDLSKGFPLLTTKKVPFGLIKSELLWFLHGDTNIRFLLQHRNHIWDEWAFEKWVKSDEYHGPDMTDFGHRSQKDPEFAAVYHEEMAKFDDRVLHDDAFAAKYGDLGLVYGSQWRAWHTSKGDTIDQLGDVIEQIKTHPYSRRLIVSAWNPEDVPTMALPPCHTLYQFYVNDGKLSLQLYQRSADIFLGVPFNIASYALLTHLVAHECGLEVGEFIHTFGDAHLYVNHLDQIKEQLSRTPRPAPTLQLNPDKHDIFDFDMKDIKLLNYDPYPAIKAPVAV
In another data set the test system is FaDu cells. Put plainly: Protection of FaDu cells from growth inhibition by hypoxanthine, thymidine, leucovorin. The format is cell-based, human. Here is the method:
Compound 113-161 was also tested for its ability to inhibit the growth of FaDu human squamous cell carcinoma cell lines. Performance was tested against MTX using hypoxanthine (Hx) and Thymidine (TdR).
Protection after 120 hours with di-LV was also determined. All of the tested compounds reversed inhibition with leucovorin.

The next data set deals with FaDu. Put plainly: Growth inhibition of FaDu human squamous carcinoma cell line. To be noted: Homo sapiens, FaDu; Table 19; continuous exposure (0 to 120 hours); read-out: Growth inhibition EC50, FaDu. The class given is cell-based.
The test system of a further data set is A253. Put plainly: Growth inhibition of A253 human squamous carcinoma cell line. To be noted: Table 19, continuous exposure (0 to 120 hours). The format is cell-based. Here is the method: The performance of these compounds was evaluated against MTX.
Substrate in data set [3]: Nc1nc(N)c2nc(CNc3ccc(C(=O)N[C@@H](CCC(=O)O)C(=O)O)cc3)cnc2n1
Put plainly: Substrate activity for CCRF-CEM folylpolyglutamate synthetase. The class given is biochemical, human. The note with it: substrate for FPGS. Here is the method:
as §1, §2

Substrate in data set [4]: Nc1nc(N)c2c(CCc3ccc(C(=O)N[C@@H](CCC(=O)O)C(=O)O)cc3)coc2n1
Described as above. The format is biochemical, human. The note with it: other: Table 18; substrate for FPGS. Here is the method: as §1, §2

[5] abbreviates: Table 19, continuous exposure (0 to 120 hours), read-out: Growth inhibition EC50, CCRF-CEM.

A word on the EC50: it is the concentration at which the effect is half-maximal. A word on the Km: it is the concentration of substrate that gives half-maximal velocity.

Like-named read-outs stand apart in the source and are kept apart here.

T1 sequence (P00374 whole entry): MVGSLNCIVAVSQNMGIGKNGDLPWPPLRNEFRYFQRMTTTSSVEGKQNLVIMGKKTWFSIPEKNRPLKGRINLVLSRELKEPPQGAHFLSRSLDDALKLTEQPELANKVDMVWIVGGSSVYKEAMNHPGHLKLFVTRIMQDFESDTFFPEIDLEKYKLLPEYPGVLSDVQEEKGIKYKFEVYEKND
Chain of L. casei DHFR (P00381 whole entry): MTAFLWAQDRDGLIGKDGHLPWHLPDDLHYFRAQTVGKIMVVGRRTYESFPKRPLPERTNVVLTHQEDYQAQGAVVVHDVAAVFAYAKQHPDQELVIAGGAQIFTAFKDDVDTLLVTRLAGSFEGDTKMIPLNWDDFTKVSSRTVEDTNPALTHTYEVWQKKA

As to `Nc1nc(N)c2c(CNCc3ccc(C(=O)N[C@@H](CCC(=O)O)C(=O)O)cc3)coc2n1` [Compound 34], the figures for the IC50 on CCRF-CEM DHFR and on human recombinant TS were 30500 nM and 63000 nM, respectively. Further, in the data set with CCRF-CEM cells (setting [5]), the EC50 came to 48000 nM. For the same molecule, the “Vmax(rel)” value in data set [1] is reported as 0.6.

`Nc1nc2[nH]cc(CNc3ccc(C(=O)N[C@@H](CCC(=O)O)C(=O)O)cc3)c2c(=O)[nH]1` [Compound 407]: the EC50 came to 310 ± 30 nM in the data set with R2 cells; 200 ± 20 nM in the data set with R1 cells; 79 nM with CCRF-CEM cells (Table 23, continuous exposure, read-out: Growth inhibition EC50, CEM (sensitive)); 120 ± 10 nM with R30dm cells (Table 23, continuous exposure, read-out: Growth inhibition EC50, R30dm (decreased FPGS)). For the same molecule, the IC50 was 5800 nM against TS from P. carinii, 6900 nM at L. casei DHFR, more than 12000 nM in data set [2] and 46000 nM against L. casei TS.

As to `Cc1nc(N)nc2[nH]cc(CCc3ccc(C(=O)N[C@@H](CCC(=O)O)C(=O)O)cc3)c12` [Compound 113-161], the “protection study with hypoxanthine (Hx) and thymidine (TdR)” value with FaDu cells is reported as “almost completely reversed the TS inhibition”.

With `Nc1nc(N)c2c(CCc3ccc(C(=O)N[C@@H](CCC(=O)O)C(=O)O)cc3)coc2n1` [Compound 33, N-[4-[2-(2,4-diaminofuro[2,3-d]pyrimidin-5-yl)ethyl]-benzoyl]-L-glutamic acid], the IC50 against CCRF-CEM DHFR turned out to be 250 nM; on L. casei DHFR (Table 17, read-out: L. casei DHFR IC50), 100 nM; on human recombinant TS, 220000 nM. Also, the EC50 stood at 290 nM in the data set with CCRF-CEM cells (setting [5]); 18 ± 20 nM in the data set on FaDu; 4250 nM in the data set on R30dm cells (Table 19, continuous exposure (0 to 120 hours), read-out: Growth inhibition EC50, R30DM); 540 ± 90 nM in the data set with A253. In addition, the “Vmax(rel)” value in data set [1] is listed as 0.65 ± 0.01.

B1: CCRF-CEM human leukemia cell folylpolyglutamate synthetase (Homo sapiens) (protein)
chain: MEYQDAVRMLNTLQTNAGYLEQVKRQRGDPQTQLEAMELYLARSGLQVEDLDRLNIIHVTGTKGKGSTCAFTECILRSYGLKTGFFSSPHLVQVRERIRINGQPISPELFTKYFWRLYHRLEETKDGSCVSMPPYFRFLTLMAFHVFLQEKVDLAVVEVGIGGAYDCTNIIRKPVVCGVSSLGIDHTSLLGDTVEKIAWQKGGIFKQGVPAFTVLQPEGPLAVLRDRAQQISCPLYLCPMLEALEEGGPPLTLGLEGEHQRSNAALALQLAHCWLQRQDRHGAGEPKASRPGLLWQLPLAPVFQPTSHMRLGLRNTEWPGRTQVLRRGPLTWYLDGAHTASSAQACVRWFRQALQGRERPSGGPEVRVLLFNATGDRDPAALLKLLQPCQFDYAVFCPNLTEVSSTGNADQQNFTVTLDQVLLRCLEHQQHWNHLDEEQASPDLWSAPSPEPGGSASLLLAPHPPHTCSASSLVFSCISHALQWISQGRDPIFQPPSPPKGLLTHPVAHSGASILREAAAIHVLVTGSLHLVGGVLKLLEPALSQ
notes: substrates for human leukemia cell CCRF-CEM folylpolyglutamate synthetase; endogenous in cells; host or cells: CCRF-CEM human leukemia cells
Turning to B1, the values for the Michaelis-Menten constant (Km) in data set [3] (other: Table 10), in data set [3] (other: Table 18) and in [4] were 4.3 ± 0.2 µM, 4.8 ± 0.7 µM and 8.5 ± 2.1 µM, respectively.
